According to paper PMC5795001, “The activity of the C4-dicarboxylic acid chemoreceptor of Pseudomonas aeruginosa is controlled by chemoattractants and antagonists” (Scientific Reports, 2018):
“Also recorded” adds a separate entry of the source.

Assays:
PA2652-LBD [1] = target: T1, PA2652-LBD (Pseudomonas aeruginosa, UniProt Q9I0I6); assay: biochemical; format: binding, Pseudomonas aeruginosa PAO1
T1 construct: The DNA fragment encoding the LBD of PA2652 (Lys^34–Thr^205) was amplified; His-tag (vector-encoded by pET28b(+) via NdeI site); made in house; host or cells: Escherichia coli BL21 (DE3)
T1 sequence (Q9I0I6 34-205): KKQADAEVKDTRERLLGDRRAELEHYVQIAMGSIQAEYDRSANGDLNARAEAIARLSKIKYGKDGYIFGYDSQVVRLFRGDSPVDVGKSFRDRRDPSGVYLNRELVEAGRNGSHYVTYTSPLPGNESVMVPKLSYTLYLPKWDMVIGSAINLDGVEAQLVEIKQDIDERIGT
Protocol: To unambiguously determine ligand binding, we conducted Isothermal Titration Calorimetry (ITC)[40] binding studies with the purified protein.
Experiments were conducted on a VP-microcalorimeter (Microcal, Amherst, MA, USA) at 20 °C. PA2652-LBD was dialyzed overnight against TNG buffer, adjusted to a concentration of 20–35 μM and placed into the sample cell of the instrument. The protein was titrated by the injection of 9.6–14.4 μl aliquots of 1–20 mM ligand solutions that were prepared in TNG buffer (20 mM Tris/HCl, 150 mM NaCl, 10% (v/v) glycerol, pH 6.8) immediately before use. The mean enthalpies measured from the injection of ligands into buffer were subtracted from raw titration data prior to data analysis with the MicroCal version of ORIGIN. Data were fitted with the “One binding site model”.

PA2652-LBD [2] = target: T1, PA2652-LBD; assay: Sedimentation velocity analytical ultracentrifugation; design: species or system Pseudomonas aeruginosa PAO1; conditions: 1 mM L-malic acid, protein 5-20 µM, 7 °C, PIPES buffer
Protocol: To address this issue, PA2652-LBD was analysed by sedimentation velocity analytical ultracentrifugation (AUC). Initial experiments were conducted using concentrations of ligand-free protein ranging from 5 to 20 µM. […] The molecular weight extracted from the sedimentation coefficient and the shape was of 41 kDa. Considering that the sequence-derived mass of the PA2652-LBD monomer is 21.5 kDa, the observed species is clearly a protein dimer. Since no shift to higher sedimentation coefficients was measured with increasing protein concentrations (data not shown), the dimer species can be considered stable over the protein concentration range analysed. The above experiments were also performed in the presence of saturating concentrations of L-malic acid.
Experiments were performed on a Beckman Coulter Optima XL-A analytical ultracentrifuge (Beckman-Coulter, Palo Alto, CA, USA) equipped with UV-visible absorbance detection system, using an An50Ti 8-hole rotor and 12 mm path-length charcoal-filled epon double-sector centrepieces. […] Light at a wavelength of 234 nm was recorded in the absorbance optics mode. […] Buffer density (ρ = 1.0015 g/mL) and viscosity (η = 0.01449 Poise) at 7 °C were calculated from the buffer composition using SEDNTERP software. […]

[3] = tested on: Pseudomonas aeruginosa PAO1 cheA1 mutant; assay: Capillary chemotaxis assay, cheA1 mutant; format: cell-based; conditions: 10 mM L-malic acid
Protocol: A recent bioinformatic study has predicted that PA2652 signals through the che pathway. To verify this prediction we conducted chemotaxis assays to L-malic acid using the wt strain as well as mutants in cheA1 and cheA2, encoding respectively the histidine kinases of the che and che2 pathways.
Overnight cultures of P. aeruginosa strains were diluted to an OD660 of 0.05 in MS medium (30 mM Na2HPO4, 20 mM KH2PO4, 25 mM NH4NO3, 1 mM MgSO4) supplemented with 6 mg l^−1 Fe-citrate, trace elements[81] and 15 mM glucose as carbon source, and grown at 37 °C with orbital shaking (200 rpm). At an OD660 of 0.4 ([…]) cultures were centrifuged at 1,700 × g for 5 min and the resulting pellet was washed twice with chemotaxis buffer (50 mM potassium phosphate, […], 0.05% (v/v) glycerol, pH 7.0). Subsequently, the cells were resuspended in the same buffer, adjusted to an OD660 of 0.1 and 230 µl aliquots of the bacterial cultures were placed into 96-well plates. For the quantitative assays, one-microliter capillary tubes (Microcaps, Drummond Scientific, Ref. P1424) were heat-sealed at one end and filled with either the chemotaxis buffer (negative control) or chemotaxis buffer containing the chemoeffectors to test. The capillaries were immersed into the bacterial suspensions at its open end. […] The number of colony forming units was determined after overnight incubation. […]

PA2652-LBD [4] = target: T1, PA2652-LBD; format: binding, Pseudomonas aeruginosa PAO1; conditions: DSF screening as described in text; 2 °C threshold for significant hits
Text: To identify ligands that may bind to the LBD of PA2652, we conducted Differential Scanning Fluorimetry (DSF) based high throughput ligand screening assays as described previously[37],[38]. DSF analyses permit the determination of melting temperature (Tm) values, which corresponds to the temperature at which half the protein is in its native conformation whereas the remaining half has undergone thermal unfolding. Since ligand binding typically enhances the thermal stability of proteins, increases in the Tm in the presence of ligands may be indicative of specific binding. We screened 450 different compounds available in five different ligand arrays from Biolog (Supplementary Fig. S3). The screened collection included different carbon and nitrogen sources, phosphorous and sulfurous compounds as well as different nutrient supplements.
Thermal shift assays were performed on a MyIQ2 Real-Time PCR instrument (BioRad). Ligands from the different compound arrays (Biolog, Hayward, CA, USA; see Supplementary Fig. S3) were dissolved in 50 μl of MilliQ water, which, according to the manufacturer, corresponds to a concentration of 10–20 mM. Screening was performed using 96 wells plates. Each well contained 20 μM of protein dialyzed into TNG buffer (20 mM Tris/HCl, 150 mM NaCl, 10% (v/v) glycerol, pH 6.7), 2.5 μl of the resuspended compounds and SYPRO Orange (Life Technologies) at 5× concentration. In a single well (ligand free protein) the compound was substituted by water. Samples were heated from 23 °C to 85 °C at a scan rate of 1 °C/min. The protein unfolding curves were obtained by following the changes in SYPRO Orange fluorescence. Melting temperatures were determined using the first derivative values from the raw fluorescence data.

O=C(O)C[C@H](O)C(=O)O [L-malic acid]
Kd (PA2652-LBD [1]): 23 ± 1 µM
TΔS (entropy change of binding) (PA2652-LBD [1]; ITC): 2.1 ± 1 kcal/mol
Binding in ITC (PA2652-LBD [1]; YES/NO): YES
Effect of ligand binding on oligomerization state of PA2652-LBD (PA2652-LBD [2]): does not have any significant effects on the oligomerization state
Chemotaxis in cheA1 mutant [3]: abolished chemotaxis; also recorded: no response was observed
Tm increases (PA2652-LBD [4]): more than 2 °C
